Data published in paper PMC9898036, “VIP152 is a selective CDK9 inhibitor with pre-clinical in vitro and in vivo efficacy in chronic lymphocytic leukemia” (Leukemia, 2022).

Columns and labels:
SGK3 = SGK3 (Homo sapiens, UniProt Q96BR1); assay: KINOMEscan: SGK3; type: binding; details: 100 nM, read-out: Percent Control
FLT3(D835Y) = FLT3(D835Y) (Homo sapiens, UniProt P36888, D835Y); assay: KINOMEscan: FLT3(D835Y); type: binding; details: 1000 nM, read-out: Percent Control
Bradykinin B1 = Bradykinin B1 (Homo sapiens, UniProt P46663); assay: Eurofins Diversity Panel; type: binding; details: hum, Conc. 10 μM
[1] = target: EGFR(L747-S752del, P753S) (Homo sapiens, UniProt P00533, DEL747-752/P753S); assay: KINOMEscan: EGFR(L747-S752del, P753S); type: binding; details: 1000 nM, read-out: Percent Control
KIT(D816V) = KIT(D816V) (Homo sapiens, UniProt P10721, D816V); assay: KINOMEscan: KIT(D816V); type: binding; details: 1000 nM, read-out: Percent Control
FLT3(D835V) = FLT3(D835V) (Homo sapiens, UniProt P36888, D835V); assay: KINOMEscan: FLT3(D835V); type: binding; details: 1000 nM, read-out: Percent Control
MLK2 = MLK2 (Homo sapiens, UniProt Q02779); assay: KINOMEscan: MLK2; type: binding; details: 1000 nM, read-out: Percent Control
EPHB1 = EPHB1 (Homo sapiens, UniProt P54762); assay: KINOMEscan: EPHB1; type: binding; details: 1000 nM, read-out: Percent Control
EPHB1, sequence (P54762 18-984): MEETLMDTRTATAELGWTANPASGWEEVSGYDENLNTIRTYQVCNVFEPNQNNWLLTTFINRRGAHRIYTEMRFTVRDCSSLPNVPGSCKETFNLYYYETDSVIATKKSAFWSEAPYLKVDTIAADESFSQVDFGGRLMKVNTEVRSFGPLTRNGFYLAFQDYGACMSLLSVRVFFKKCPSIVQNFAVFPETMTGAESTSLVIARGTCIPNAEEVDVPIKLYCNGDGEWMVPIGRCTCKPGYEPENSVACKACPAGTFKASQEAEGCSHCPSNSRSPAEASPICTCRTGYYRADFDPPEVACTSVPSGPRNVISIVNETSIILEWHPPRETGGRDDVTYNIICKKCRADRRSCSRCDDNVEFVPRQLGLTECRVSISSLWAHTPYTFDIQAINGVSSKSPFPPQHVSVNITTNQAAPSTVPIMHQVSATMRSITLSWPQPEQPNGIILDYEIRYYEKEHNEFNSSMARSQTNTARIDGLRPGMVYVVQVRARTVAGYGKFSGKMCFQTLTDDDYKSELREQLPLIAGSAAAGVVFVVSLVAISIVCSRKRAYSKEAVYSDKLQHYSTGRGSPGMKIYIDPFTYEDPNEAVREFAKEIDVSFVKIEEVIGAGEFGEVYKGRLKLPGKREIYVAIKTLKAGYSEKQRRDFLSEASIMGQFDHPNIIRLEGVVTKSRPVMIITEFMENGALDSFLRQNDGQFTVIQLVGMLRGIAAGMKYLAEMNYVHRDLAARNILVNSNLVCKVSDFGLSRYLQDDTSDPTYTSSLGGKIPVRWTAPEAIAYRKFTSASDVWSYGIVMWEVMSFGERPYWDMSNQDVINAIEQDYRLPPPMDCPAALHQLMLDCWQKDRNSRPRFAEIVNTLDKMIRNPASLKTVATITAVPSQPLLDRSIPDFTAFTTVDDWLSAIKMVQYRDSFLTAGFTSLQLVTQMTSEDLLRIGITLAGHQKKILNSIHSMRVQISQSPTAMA

WNK4 = WNK4 (Homo sapiens, UniProt Q96J92); assay: KINOMEscan: WNK4; type: binding; details: 100 nM, read-out: Percent Control
WNK4, sequence (Q96J92 whole entry): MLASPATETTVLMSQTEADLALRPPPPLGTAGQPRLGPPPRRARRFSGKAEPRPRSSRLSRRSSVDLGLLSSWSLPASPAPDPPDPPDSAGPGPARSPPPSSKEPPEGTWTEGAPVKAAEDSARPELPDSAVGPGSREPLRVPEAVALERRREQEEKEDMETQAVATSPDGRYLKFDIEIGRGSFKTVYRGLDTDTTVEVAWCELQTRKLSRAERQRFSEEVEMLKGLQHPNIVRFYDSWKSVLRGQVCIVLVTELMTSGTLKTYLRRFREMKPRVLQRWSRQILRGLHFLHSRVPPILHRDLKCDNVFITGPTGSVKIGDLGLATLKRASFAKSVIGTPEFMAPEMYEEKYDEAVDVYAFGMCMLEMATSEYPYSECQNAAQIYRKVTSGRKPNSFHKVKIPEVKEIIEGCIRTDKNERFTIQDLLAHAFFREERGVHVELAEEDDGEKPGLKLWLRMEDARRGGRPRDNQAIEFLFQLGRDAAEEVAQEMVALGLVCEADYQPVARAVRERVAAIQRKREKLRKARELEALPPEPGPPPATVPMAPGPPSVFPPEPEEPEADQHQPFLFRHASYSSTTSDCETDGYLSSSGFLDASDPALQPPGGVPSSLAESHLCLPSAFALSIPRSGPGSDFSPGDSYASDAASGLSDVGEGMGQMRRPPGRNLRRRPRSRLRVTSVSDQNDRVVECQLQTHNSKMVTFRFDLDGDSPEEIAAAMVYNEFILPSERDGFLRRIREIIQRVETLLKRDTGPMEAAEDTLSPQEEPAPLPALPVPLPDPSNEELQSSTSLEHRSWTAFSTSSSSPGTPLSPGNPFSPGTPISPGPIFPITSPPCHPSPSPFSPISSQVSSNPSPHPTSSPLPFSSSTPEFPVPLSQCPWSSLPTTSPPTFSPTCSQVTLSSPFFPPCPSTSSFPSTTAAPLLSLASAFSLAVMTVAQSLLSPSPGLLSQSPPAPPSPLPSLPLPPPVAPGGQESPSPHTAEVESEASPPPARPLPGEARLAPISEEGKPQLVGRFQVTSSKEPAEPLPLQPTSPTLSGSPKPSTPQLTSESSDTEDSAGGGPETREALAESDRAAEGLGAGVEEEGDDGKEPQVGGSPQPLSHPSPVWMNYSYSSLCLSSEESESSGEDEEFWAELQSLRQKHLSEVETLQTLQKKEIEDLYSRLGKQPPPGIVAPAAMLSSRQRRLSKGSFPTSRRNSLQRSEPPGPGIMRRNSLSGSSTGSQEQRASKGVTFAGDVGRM

CHEK1 = CHEK1 (Homo sapiens, UniProt O14757); assay: KINOMEscan: CHEK1; type: binding; details: 1000 nM, read-out: Percent Control
CHEK1, sequence (O14757 whole entry): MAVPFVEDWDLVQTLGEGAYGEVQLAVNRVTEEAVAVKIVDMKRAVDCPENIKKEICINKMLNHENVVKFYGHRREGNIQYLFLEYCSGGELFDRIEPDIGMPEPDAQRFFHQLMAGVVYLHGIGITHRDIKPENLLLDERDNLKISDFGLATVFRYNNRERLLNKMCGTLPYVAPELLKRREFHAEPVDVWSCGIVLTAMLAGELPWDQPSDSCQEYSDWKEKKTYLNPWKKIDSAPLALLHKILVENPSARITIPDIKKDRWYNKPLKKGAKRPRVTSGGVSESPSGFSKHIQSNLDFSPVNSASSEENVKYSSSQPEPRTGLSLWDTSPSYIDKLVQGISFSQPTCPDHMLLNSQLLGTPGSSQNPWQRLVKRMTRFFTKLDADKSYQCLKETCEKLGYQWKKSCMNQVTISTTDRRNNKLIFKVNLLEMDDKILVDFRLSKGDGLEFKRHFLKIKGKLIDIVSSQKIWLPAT

FLT3(ITD) = assay: KINOMEscan: FLT3(ITD); type: binding, human; details: 1000 nM
HIPK3 = HIPK3 (Homo sapiens, UniProt Q9H422); assay: KINOMEscan: HIPK3; type: binding; details: 1000 nM, read-out: Percent Control
HIPK3, sequence (Q9H422 whole entry): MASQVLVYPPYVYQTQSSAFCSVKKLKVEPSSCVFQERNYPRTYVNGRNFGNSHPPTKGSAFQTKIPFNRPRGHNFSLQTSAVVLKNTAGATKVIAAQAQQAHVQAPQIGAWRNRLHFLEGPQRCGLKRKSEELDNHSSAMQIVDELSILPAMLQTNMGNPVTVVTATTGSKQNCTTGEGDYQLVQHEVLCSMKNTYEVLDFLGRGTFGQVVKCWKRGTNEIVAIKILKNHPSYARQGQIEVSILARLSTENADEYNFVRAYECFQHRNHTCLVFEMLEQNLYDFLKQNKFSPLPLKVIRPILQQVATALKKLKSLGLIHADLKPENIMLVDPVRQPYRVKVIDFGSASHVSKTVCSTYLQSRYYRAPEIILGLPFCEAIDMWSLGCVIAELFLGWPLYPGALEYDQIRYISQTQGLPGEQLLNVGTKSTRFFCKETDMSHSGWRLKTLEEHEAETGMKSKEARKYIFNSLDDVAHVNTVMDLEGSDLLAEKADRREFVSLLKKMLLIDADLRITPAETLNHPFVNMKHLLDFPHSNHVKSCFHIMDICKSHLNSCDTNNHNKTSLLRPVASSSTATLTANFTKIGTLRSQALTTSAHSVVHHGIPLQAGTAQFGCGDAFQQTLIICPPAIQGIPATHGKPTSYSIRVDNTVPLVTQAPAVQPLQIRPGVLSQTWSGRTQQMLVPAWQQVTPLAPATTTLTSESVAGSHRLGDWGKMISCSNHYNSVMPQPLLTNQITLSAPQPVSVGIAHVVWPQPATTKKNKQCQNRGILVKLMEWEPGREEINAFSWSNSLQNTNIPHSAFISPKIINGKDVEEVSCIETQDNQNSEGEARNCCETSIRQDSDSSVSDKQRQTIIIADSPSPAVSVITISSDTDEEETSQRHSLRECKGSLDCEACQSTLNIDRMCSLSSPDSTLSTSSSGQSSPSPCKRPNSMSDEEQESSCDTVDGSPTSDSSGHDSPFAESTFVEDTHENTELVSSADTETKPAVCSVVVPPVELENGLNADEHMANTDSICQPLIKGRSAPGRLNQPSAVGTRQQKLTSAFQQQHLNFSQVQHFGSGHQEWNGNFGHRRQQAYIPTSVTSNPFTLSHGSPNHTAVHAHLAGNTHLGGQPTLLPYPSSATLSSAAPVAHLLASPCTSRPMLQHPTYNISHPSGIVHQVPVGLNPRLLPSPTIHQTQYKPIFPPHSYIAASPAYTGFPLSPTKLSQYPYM

FLT3(ITD,D835V) = assay: KINOMEscan: FLT3(ITD,D835V); type: binding, human; details: 1000 nM
ZAK = ZAK (Homo sapiens, UniProt Q9NYL2); assay: KINOMEscan: ZAK; type: binding; details: 100 nM, read-out: Percent Control
DRAK2 = DRAK2 (Homo sapiens, UniProt O94768); assay: KINOMEscan: DRAK2; type: binding; details: 1000 nM, read-out: Percent Control
[2] = target: Transporter, Dopamine (DAT) (Homo sapiens, UniProt Q01959); assay: Eurofins Diversity Panel; type: binding; details: hum, Conc. 10 μM
ULK1 = ULK1 (Homo sapiens, UniProt O75385); assay: KINOMEscan: ULK1; type: binding; details: 100 nM, read-out: Percent Control
LATS2 = LATS2 (Homo sapiens, UniProt Q9NRM7); assay: KINOMEscan: LATS2; type: binding; details: 1000 nM, read-out: Percent Control
[3] = tested on: Glutamate, NMDA, Phencyclidine; assay: Eurofins Diversity Panel; type: binding; details: rat, Conc. 10 μM
LYN = LYN (Homo sapiens, UniProt P07948); assay: KINOMEscan: LYN; type: binding; details: 1000 nM, read-out: Percent Control
Transporter, GABA = Transporter, GABA (Rattus norvegicus, UniProt P23978); assay: Eurofins Diversity Panel; type: binding; details: Conc. 10 μM
FGFR3 = FGFR3 (Homo sapiens, UniProt P22607); assay: KINOMEscan: FGFR3; type: binding; details: 1000 nM, read-out: Percent Control
TGFBR2 = TGFBR2 (Homo sapiens, UniProt P37173); assay: KINOMEscan: TGFBR2; type: binding; details: 100 nM, read-out: Percent Control
Adrenergic β2 = Adrenergic β2 (Homo sapiens, UniProt P07550); assay: Eurofins Diversity Panel; type: binding; details: hum, Conc. 10 μM
Adrenergic β2, sequence (P07550 whole entry): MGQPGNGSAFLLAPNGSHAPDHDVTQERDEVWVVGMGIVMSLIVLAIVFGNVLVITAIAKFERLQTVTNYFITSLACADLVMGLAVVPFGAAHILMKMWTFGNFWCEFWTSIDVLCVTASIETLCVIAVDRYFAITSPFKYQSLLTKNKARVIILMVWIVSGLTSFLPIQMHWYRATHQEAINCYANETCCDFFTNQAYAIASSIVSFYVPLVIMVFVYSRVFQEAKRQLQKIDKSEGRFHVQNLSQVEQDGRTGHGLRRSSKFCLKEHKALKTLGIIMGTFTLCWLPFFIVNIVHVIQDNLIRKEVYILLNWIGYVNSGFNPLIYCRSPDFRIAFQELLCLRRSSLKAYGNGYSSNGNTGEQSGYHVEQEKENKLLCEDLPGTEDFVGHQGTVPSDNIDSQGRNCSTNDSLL

STK35 = STK35 (Homo sapiens, UniProt Q8TDR2); assay: KINOMEscan: STK35; type: binding; details: 100 nM, read-out: Percent Control

SGK3, sequence (Q96BR1 whole entry): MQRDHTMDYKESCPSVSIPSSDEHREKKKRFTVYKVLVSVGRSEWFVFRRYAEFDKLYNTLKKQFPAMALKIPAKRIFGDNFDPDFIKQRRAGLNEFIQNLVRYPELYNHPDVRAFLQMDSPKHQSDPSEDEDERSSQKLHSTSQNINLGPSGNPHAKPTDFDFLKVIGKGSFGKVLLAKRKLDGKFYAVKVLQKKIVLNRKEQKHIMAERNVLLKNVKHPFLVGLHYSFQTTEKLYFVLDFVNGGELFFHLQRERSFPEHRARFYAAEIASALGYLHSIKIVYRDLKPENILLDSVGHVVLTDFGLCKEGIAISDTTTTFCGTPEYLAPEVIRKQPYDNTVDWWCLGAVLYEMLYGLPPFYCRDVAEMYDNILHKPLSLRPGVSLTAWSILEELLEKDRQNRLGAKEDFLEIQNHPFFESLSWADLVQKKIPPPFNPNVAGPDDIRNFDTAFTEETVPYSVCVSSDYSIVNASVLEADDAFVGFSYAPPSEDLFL

COc1cc(F)ccc1-c1cc(Nc2cc(CS(C)(=N)=O)ccn2)ncc1F (stereo not shown) [VIP152] gave a remaining binding at 0.1 µM (SGK3) of 100%, a remaining binding at 1 µM (FLT3(D835Y)) of 67% and an inhibition at 10 µM (Bradykinin B1) of 1%. For the same compound, the remaining binding at 1 µM [1] was 94%, the remaining binding at 1 µM (KIT(D816V)) was 88% and the remaining binding at 1 µM (FLT3(D835V)) was 15%. It also gave a remaining binding at 1 µM (MLK2) of 100%, a remaining binding at 1 µM (EPHB1) of 99% and a remaining binding at 0.1 µM (WNK4) of 100%. For the same compound, the remaining binding at 1 µM (CHEK1) was 100%, the “Percent Control” value (FLT3(ITD)) was 87% and the remaining binding at 1 µM (HIPK3) was 66%. The “Percent Control” value (FLT3(ITD,D835V)) was 60%, the remaining binding at 0.1 µM (ZAK) was 100% and the remaining binding at 1 µM (DRAK2) was 100%. For the same compound, the inhibition at 10 µM [2] was 31%, the remaining binding at 0.1 µM (ULK1) was 93% and the remaining binding at 1 µM (LATS2) was 97%. The “% Inh.” value [3] was 5%, the remaining binding at 1 µM (LYN) was 90% and the inhibition at 10 µM (Transporter, GABA) was -20%. For the same compound, the remaining binding at 1 µM (FGFR3) was 75%, the remaining binding at 0.1 µM (TGFBR2) was 100% and the inhibition at 10 µM (Adrenergic β2) was 3%. The remaining binding at 0.1 µM (STK35) was 100%.
